According to patent publication US20090156582A1, “Pyrazole Compound” (priority 2005, published 2009):

Biological target: T1, recombinant GSK3β enzyme (human GSK3β) (Homo sapiens, UniProt P49841)
T1 construct: FLAG (N); made in house; host or cells: Sf-21 insect cells, recombinant baculovirus (pFASTBAC1 / BAC-TO-BAC)
Assay: Measurement of GSK3β inhibitory activity
Format: biochemical
Details: glycogen synthase peptide substrate, Kinase Glo luminescence, read-out: IC50 (concentration of test compound needed for 50% inhibition of luminescent intensity), GSK3β inhibitory activity
Excerpt: Human GSK3β gene was cloned by a PCR method using a primer set:
prepared using human brain cDNA (Clontech; trade name: QUICK-Clone cDNA) as a template and in reference to the base sequence of GSK3β gene registered in GenBank under Accession Number NM_002093.
PCR was done according to the protocol attached to KOD plus DNA polymerase (Toyo Boseki Kabushiki Kaisha). The obtained PCR product was electrophoresed on agarose gel (1%), and 1.2 kb of DNA fragment including GSK3β gene was collected from the gel and then digested with restriction enzymes EcoR I and Sal I. The restriction enzyme-treated DNA was electrophoresed on agarose gel (1%). The obtained DNA fragment was collected, and ligated to the plasmid pFASTBAC1 (Invitrogen), which had been digested with restriction enzyme EcoR I and Sal I, to produce expression plasmid pFB-GSK3B. The base sequence of insertion fragment was confirmed to find that it corresponded to the objective sequence. In addition, virus stock BAC-GSK3B of recombinant Baculovirus was prepared using BAC-TO-BAC Baculovirus Expression System (Invitrogen).
Sf-21 cells (Invitrogen) were seeded on Sf-900 II SFM medium (Invitrogen)(150 ml) containing 10% fetal calf serum at 1×10^6 cells/ml, and cultured at 27° C. for 24 hr. The virus stock […] obtained above of recombinant Baculovirus was added by 150 μl to the obtained culture medium, and the cells were cultured for another 60 hr. The culture medium was centrifuged (3000 rpm, 10 min) to separate the cells, and the cells were washed once with PBS. The cells were suspended in 10 ml of cell lysis buffer (25 mM HEPES (pH 7.5), 1% Triton X, 130 mM sodium chloride, 1 mM EDTA, 1 mM Dithiothreitol, 25 mM β-glycerophosphate, Protease inhibitor Complete (Boehringer), 1 mM Sodium orthovanadate), treated 4 times using a homogenizer (POLYTRON) at 20000 rpm for 30 sec to disrupt the cells. The disrupted solution of cells was centrifuged (40000 rpm, 45 min.), and GSK3β was purified from the obtained supernatant using Anti-FLAG M2 Affinity Gel (Sigma Ltd.).
10 μl of ATP solution (2.5 μM ATP) was added to the obtained mixture, and the mixture was reacted at room temperature for 30 min. Kinase Glo Reagent (Promega) (50 μl) was added to the reaction solution to stop the reaction. After reaction at room temperature for 10 min, the luminescent intensity was measured using ARVO multilabel counter (PerkinElmer Life Sciences). The concentrations of the test compounds needed for 50% inhibition of luminescent intensity (IC50 value) were calculated by PRISM 3.0 (GraphPad Software).

T1 sequence (P49841 whole entry): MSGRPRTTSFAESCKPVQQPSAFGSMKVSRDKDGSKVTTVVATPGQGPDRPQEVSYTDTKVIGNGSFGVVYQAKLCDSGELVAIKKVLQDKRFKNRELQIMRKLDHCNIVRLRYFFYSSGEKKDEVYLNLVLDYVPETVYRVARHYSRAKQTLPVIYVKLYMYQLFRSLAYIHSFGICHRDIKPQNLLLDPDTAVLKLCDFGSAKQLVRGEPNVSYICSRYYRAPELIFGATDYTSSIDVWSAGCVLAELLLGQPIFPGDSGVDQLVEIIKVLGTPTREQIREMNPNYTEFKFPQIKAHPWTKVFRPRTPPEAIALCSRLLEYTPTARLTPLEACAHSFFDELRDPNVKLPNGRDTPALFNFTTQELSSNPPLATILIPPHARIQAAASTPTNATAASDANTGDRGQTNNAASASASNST

SMILES	IC50 [nM]
CC(=O)Nc1cccc(C(=O)Nc2c[nH]nc2C(=O)NCC(F)(F)F)c1 [Example 375, 4-((3-(acetylamino)benzoyl)amino)-N-(2,2,2-trifluoroethyl)-1H-pyrazole-3-carboxamide]	< 100
CC(=O)Nc1cccc(C(=O)Nc2c[nH]nc2C(=O)NCCSc2ccccc2)c1 [Example 376, 4-((3-(acetylamino)benzoyl)amino)-N-(2-(phenylthio)ethyl)-1H-pyrazole-3-carboxamide]	< 100
Cc1[nH]nc(C(=O)NC2CCCC2)c1NC(=O)c1ccccc1 [Example 378, 4-(benzoylylamino)-N-cyclopentyl-5-methyl-1H-pyrazole-3-carboxamide]	1000
CC(=O)Nc1cccc(C(=O)Nc2c[nH]nc2C(=O)NCC#N)c1 [Example 380, 4-((3-(acetylamino)benzoyl)amino)-N-(cyanomethyl)-1H-pyrazole-3-carboxamide]	< 100
CC(=O)Nc1cccc(C(=O)Nc2c[nH]nc2C(=O)NCCOC(C)(C)C)c1 [Example 381, 4-((3-(acetylamino)benzoyl)amino)-N-(2-tert-butoxyethyl)-1H-pyrazole-3-carboxamide]	140
CC(=O)Nc1cccc(C(=O)Nc2c[nH]nc2C(=O)NCCS(C)(=O)=O)c1 [Example 382, 4-((3-(acetylamino)benzoyl)amino)-N-(2-(methylsulfonyl)ethyl)-1H-pyrazole-3-carboxamide]	< 100
CC(=O)Nc1cccc(C(=O)Nc2c[nH]nc2C(=O)NCCS(=O)(=O)c2ccc(Cl)cc2)c1 [Example 383, 4-((3-(acetylamino)benzoyl)amino)-N-(2-((4-chlorophenyl)sulfonyl)ethyl)-1H-pyrazole-3-carboxamide]	< 100
CC(=O)Nc1cccc(C(=O)Nc2c[nH]nc2C(=O)NCCS(=O)(=O)c2ccccn2)c1 [Example 384, 4-((3-(acetylamino)benzoyl)amino)-N-(2-(pyridin-2-ylsulfonyl)ethyl)-1H-pyrazole-3-carboxamide]	< 100
CC(=O)Nc1cccc(C(=O)Nc2c[nH]nc2C(=O)NCCCOC(C)C)c1 [Example 385, 4-((3-(acetylamino)benzoyl)amino)-N-(3-isopropoxypropyl)-1H-pyrazole-3-carboxamide]	< 100
Cc1cccc(C(=O)Nc2c[nH]nc2C(=O)NCC(F)(F)F)n1 [Example 389, 6-methyl-N-(3-(((2,2,2-trifluoroethyl)amino)carbonyl)-1H-pyrazol-4-yl)pyridine-2-carboxamide]	< 100
O=C(Nc1c[nH]nc1C(=O)NCCCOc1ccccc1)c1ccccn1 [Example 391, N-(3-(((3-phenoxypropyl)amino)carbonyl)-1H-pyrazol-4-yl)pyridine-2-carboxamide]	< 100
O=C(Nc1c[nH]nc1C(=O)NCCC(F)(F)F)c1ccccn1 [Example 393, N-(3-(((3,3,3-trifluoropropyl)amino)carbonyl)-1H-pyrazol-4-yl)pyridine-2-carboxamide]	< 100
N#CCNC(=O)c1n[nH]cc1NC(=O)c1ccccn1 [Example 395, N-(3-(((cyanomethyl)amino)carbonyl)-1H-pyrazol-4-yl)pyridine-2-carboxamide]	< 100
O=C(Nc1c[nH]nc1C(=O)NCCNc1ccccn1)c1ccccn1 [Example 397, N-(3-(((2-(pyridin-2-ylamino)ethyl)amino)carbonyl)-1H-pyrazol-4-yl)pyridine-2-carboxamide]	< 100
O=C(Nc1c[nH]nc1C(=O)NCCNc1ccccc1)c1ccccn1 [Example 399, N-(3-(((2-anilinoethyl)amino)carbonyl)-1H-pyrazol-4-yl)pyridine-2-carboxamide]	< 100
O=C(Nc1c[nH]nc1C(=O)NCCO)c1ccccn1 [Example 401, N-(3-(((2-hydroxyethyl)amino)carbonyl)-1H-pyrazol-4-yl)pyridine-2-carboxamide]	< 100
N#CCCNC(=O)c1n[nH]cc1NC(=O)C1CCCC1 [Example 411, N-(2-cyanoethyl)-4-((cyclopentylcarbonyl)amino)-1H-pyrazole-3-carboxamide]	< 100
COc1cccc(C(=O)Nc2c[nH]nc2C(=O)NCCC#N)c1 [Example 414, N-(2-cyanoethyl)-4-(3-methoxybenzoylamino)-1H-pyrazole-3-carboxamide]	< 100
CC(C)(C)C(=O)Nc1c[nH]nc1C(=O)NCCC#N [Example 415, N-(2-cyanoethyl)-4-(2,2-dimethylpropanoylamino)-1H-pyrazole-3-carboxamide]	< 100
N#CCCNC(=O)c1n[nH]cc1NC(=O)c1cccc(C#N)c1 [Example 417, N-(2-cyanoethyl)-4-(3-cyanobenzoylamino)-1H-pyrazole-3-carboxamide]	< 100
Cc1ccc(C(=O)Nc2c[nH]nc2C(=O)NCCC#N)cc1 [Example 418, N-(2-cyanoethyl)-4-(4-methylbenzoylamino)-1H-pyrazole-3-carboxamide]	< 100
Cc1cccc(C(=O)Nc2c[nH]nc2C(=O)NCCOc2ccc(F)cc2)n1 [Example 428]	< 100
CNC(=O)c1n[nH]cc1NC(=O)COc1ccccc1 [compound 004]	< 100
CNC(=O)c1n[nH]cc1NC(=O)C1CCCCC1 [compound 005]	307
CC(=O)Nc1c[nH]nc1C(=O)NC(C)C [compound 017]	< 100
CC(C)NC(=O)c1n[nH]cc1NC(=O)C1CCCCC1 [compound 020]	< 100
CCOCC(=O)Nc1c[nH]nc1C(=O)NC(C)C [compound 021]	< 100
CC(C)NC(=O)c1n[nH]cc1NC(=O)c1cnccn1 [compound 037]	< 100

More lines, now with the values ahead:

IC50 [nM]	SMILES
< 100	CC(=O)Nc1cccc(C(=O)Nc2c[nH]nc2C(=O)NCC(=O)c2ccccc2)c1 [Example 374, 4-((3-(acetylamino)benzoyl)amino)-N-(2-oxo-2-phenylethyl)-1H-pyrazole-3-carboxamide]
< 100	O=C(Nc1c[nH]nc1C(=O)NCC(F)(F)F)c1ccccc1 [Example 422, 4-(benzoylamino)-N-(2,2,2-trifluoroethyl)-1H-pyrazole-3-carboxamide]
< 100	CC(C)OCCNC(=O)c1n[nH]cc1NC(=O)c1ccccc1 [Example 424, 4-(benzoylamino)-N-(2-isopropoxyethyl)-1H-pyrazole-3-carboxamide]
267	CC(C)NC(=O)c1n[nH]cc1NC(=O)COc1ccccc1 [compound 001, N-isopropyl-4-((phenoxyacetyl)amino)-1H-pyrazole-3-carboxamide]
< 100	CNC(=O)c1n[nH]cc1NC(=O)C(c1ccccc1)c1ccccc1 [compound 003]
< 100	CC(C)NC(=O)c1n[nH]cc1NC(=O)C(c1ccccc1)c1ccccc1 [compound 019]
233	CC(C)NC(=O)c1n[nH]cc1NC(=O)Cc1ccc(-c2ccccc2)cc1 [compound 022]
< 100	CC(C)NC(=O)c1n[nH]cc1NC(=O)/C=C/c1ccccc1 [compound 023]
< 100	CC(C)NC(=O)c1n[nH]cc1NC(=O)CCc1ccccc1 [compound 024]
245	COc1ccccc1CC(=O)Nc1c[nH]nc1C(=O)NC(C)C [compound 025]
169	CC(C)NC(=O)c1n[nH]cc1NC(=O)Cc1c[nH]c2ccccc12 [compound 026]
< 100	CC(C)NC(=O)c1n[nH]cc1NC(=O)c1ccccc1 [compound 027]
< 100	CC(C)NC(=O)c1n[nH]cc1NC(=O)c1ccc(-c2ccccc2)cc1 [compound 028]
< 100	COc1ccc(C(=O)Nc2c[nH]nc2C(=O)NC(C)C)cc1 [compound 030]
< 100	CC(C)NC(=O)c1n[nH]cc1NC(=O)c1ccc(F)cc1F [compound 031]
< 100	CC(C)NC(=O)c1n[nH]cc1NC(=O)c1ccc(Oc2ccccc2)cc1 [compound 032]
171	CCCN(CCC)S(=O)(=O)c1ccc(C(=O)Nc2c[nH]nc2C(=O)NC(C)C)cc1 [compound 033]
< 100	CC(=O)Nc1cccc(C(=O)Nc2c[nH]nc2C(=O)NC(C)C)c1 [compound 034]
< 100	CC(C)NC(=O)c1n[nH]cc1NC(=O)c1ccc(OC(F)(F)F)cc1 [compound 035]
< 100	CC(C)NC(=O)c1n[nH]cc1NC(=O)c1ccc2[nH]ccc2c1 [compound 036]
